One may read the MIC as the lowest concentration that inhibits growth of the organism. As usually defined, the CC50 is the concentration that lowers cell viability or growth by half.

Each structure is given as a SMILES string. ≈ marks a conversion by molar mass, not a printed value.

Series [1] can be described thus: Selectivity index, ratio of CC50 for African green monkey Vero cells to MIC for Staphylococcus aureus ATCC 29213. The series is classed as toxicity. Conditions: read-out: Selectivity Index.
The next series deals with Acinetobacter baumannii. Briefly: Antibacterial activity against Acinetobacter baumannii BAA1605 incubated for 16 to 18 hrs by broth microdilution assay. The series is classed as functional. On the technique in general: Broth dilution looks for growth in wells or tubes with falling amounts of substance.
A further series relates to Klebsiella pneumoniae. Put plainly: Antibacterial activity against Klebsiella pneumoniae ATCC BAA-1705 incubated for 16 to 18 hrs by broth microdilution assay. It counts as functional.
Series [2] can be described thus: Cytotoxicity against African green monkey Vero cells assessed as reduction in cell viability after 72 hrs by MTT assay. It counts as cell-based. To be noted: chlorocebus sabaeus. For orientation: Tetrazolium dyes change colour on reduction, which living cells bring about.
The subject of the next series is Staphylococcus aureus. Put plainly: Antibacterial activity against Staphylococcus aureus ATCC 29213 incubated for 16 to 18 hrs by broth microdilution assay. The series is classed as functional.
In the next series the test system is Escherichia coli. Put plainly: Antibacterial activity against Escherichia coli ATCC 25922 incubated for 16 to 18 hrs by broth microdilution assay. The series is classed as functional.
The subject of another series is Pseudomonas aeruginosa. Put plainly: Antibacterial activity against Pseudomonas aeruginosa ATCC 27853 incubated for 16 to 18 hrs by broth microdilution assay. It counts as functional.
In series [3] the test system is Mycobacterium tuberculosis. Put plainly: Antitubercular activity against Mycobacterium tuberculosis H37Rv after 7 days by resazurin dye based assay. The series is classed as functional. Conditions: 168 h.
Series [4] is described as follows: Selectivity index, ratio of CC50 for African green monkey Vero cells to MIC for Mycobacterium tuberculosis H37Rv. The series is classed as toxicity. To be noted: read-out: Selectivity Index.

With `C#Cc1cccc(-n2c(/C=C/c3ccc(C#N)cc3)nc3cccc(F)c3c2=O)c1`, in series [1], the selectivity ratio is over 40. Besides, the MIC in the series with Acinetobacter baumannii was over 64 mg/L; in the series with Klebsiella pneumoniae, over 64 mg/L; against Staphylococcus aureus it was 0.25 mg/L (≈ 0.639 µM); with Escherichia coli it was over 64 mg/L; in the series on Pseudomonas aeruginosa, over 64 mg/L; in series [3], over 64 mg/L. Moreover, the CC50 at 72 h in [2] is over 10 mg/L.
For `C#CCNc1ccc2c(=O)n(-c3ccccc3)c(C)nc2c1`, the selectivity ratio in [4] was over 25. Further, the MIC was over 64 mg/L against Acinetobacter baumannii; over 64 mg/L against Klebsiella pneumoniae; over 64 mg/L in the series with Staphylococcus aureus; over 64 mg/L with Escherichia coli; over 64 mg/L with Pseudomonas aeruginosa; 4 mg/L (≈ 13.8 µM) in series [3]. Also, the CC50 at 72 h in [2] was over 100 mg/L.
For `Cc1nc2ccc(OCc3cn(-c4ccc(Cl)cc4)nn3)cc2c(=O)n1-c1ccccc1`, the selectivity ratio in series [4] was over 2.08. Further, the MIC was over 64 mg/L in the series with Acinetobacter baumannii; over 64 mg/L in the series on Klebsiella pneumoniae; over 64 mg/L in the series on Staphylococcus aureus; over 64 mg/L against Escherichia coli; over 64 mg/L with Pseudomonas aeruginosa; 16 mg/L (≈ 36 µM) in [3]. Besides, the CC50 at 72 h in [2] was over 33.3 mg/L.
As to `Cc1nc2ccc(OCc3cn(-c4cccc(Cl)c4)nn3)cc2c(=O)n1-c1ccccc1`, in series [4], the selectivity ratio is over 6.25. The MIC in the series on Acinetobacter baumannii was over 64 mg/L; against Klebsiella pneumoniae, over 64 mg/L; against Staphylococcus aureus, over 64 mg/L; against Escherichia coli, over 64 mg/L; with Pseudomonas aeruginosa, over 64 mg/L; in series [3], 16 mg/L (≈ 36 µM). Besides, the CC50 at 72 h in [2] is over 100 mg/L.
Take `Cc1nc2cc(-c3ccc(F)cc3)ccc2c(=O)n1-c1cccc(Cl)c1`: the selectivity ratio in [4] is over 0.93. Besides, the MIC was over 64 mg/L in the series with Acinetobacter baumannii; over 64 mg/L against Klebsiella pneumoniae; over 64 mg/L in the series on Staphylococcus aureus; over 64 mg/L in the series with Escherichia coli; over 64 mg/L against Pseudomonas aeruginosa; 16 mg/L (≈ 43.9 µM) in series [3]. For the same molecule, in series [2], the CC50 at 72 h was over 15 mg/L.
For the molecule `N#Cc1ccc(/C=C/c2nc3ncccc3c(=O)n2Cc2ccc(F)cc2)cc1`, the MIC (with Acinetobacter baumannii; in the series on Klebsiella pneumoniae; with Staphylococcus aureus; in the series with Escherichia coli; in the series on Pseudomonas aeruginosa; in [3]) was over 64 mg/L in each case.
`CC(C)(C)c1ccc(-n2c(/C=C/c3ccc(C#N)cc3)nc3ncccc3c2=O)cc1`: the MIC (in the series on Acinetobacter baumannii; with Klebsiella pneumoniae; in the series on Staphylococcus aureus; in the series with Escherichia coli; in the series on Pseudomonas aeruginosa; in [3]) was over 64 mg/L each time.
As for `Cc1nc2cc(-c3ccccc3)ccc2c(=O)n1-c1cccc(Cl)c1`, the selectivity ratio in series [4] amounted to 0.78. In addition, the MIC against Acinetobacter baumannii was over 64 mg/L; against Klebsiella pneumoniae, over 64 mg/L; against Staphylococcus aureus, over 64 mg/L; with Escherichia coli, over 64 mg/L; in the series with Pseudomonas aeruginosa, over 64 mg/L; in series [3] it was 16 mg/L (≈ 46.1 µM). For the same molecule, in series [2], the CC50 at 72 h came to 12.5 mg/L (≈ 36 µM).
Take `Cc1nc2cc(-n3cc(-c4ccccc4)nn3)ccc2c(=O)n1-c1ccccc1`: the MIC (in the series on Acinetobacter baumannii; with Klebsiella pneumoniae; against Staphylococcus aureus; in the series on Escherichia coli; in the series on Pseudomonas aeruginosa; in series [3]) was over 64 mg/L each time.
With `COc1ccc(-c2ccc3nc(/C=C/c4ccccc4)n(-c4ccccc4)c(=O)c3c2)cc1`, the MIC in the series with Acinetobacter baumannii was over 64 mg/L; in the series with Klebsiella pneumoniae, over 64 mg/L; in the series on Staphylococcus aureus, over 64 mg/L; in the series with Escherichia coli it was over 64 mg/L; in the series on Pseudomonas aeruginosa, over 64 mg/L; in series [3], 64 mg/L (≈ 149 µM).
With `N#Cc1ccc(/C=C/c2nc3ncccc3c(=O)n2-c2ccc(C#N)cc2)cc1`, the MIC is over 64 mg/L with Acinetobacter baumannii; over 64 mg/L in the series on Klebsiella pneumoniae; 64 mg/L (≈ 170 µM) against Staphylococcus aureus; over 64 mg/L against Escherichia coli; over 64 mg/L against Pseudomonas aeruginosa; over 64 mg/L in [3].
As for `N#Cc1ccc(/C=C/c2nc3ccccc3c(=O)n2-c2cccnc2)cc1`, the MIC is over 64 mg/L in the series on Acinetobacter baumannii; over 64 mg/L in the series on Klebsiella pneumoniae; 64 mg/L (≈ 183 µM) with Staphylococcus aureus; over 64 mg/L in the series on Escherichia coli; over 64 mg/L in the series on Pseudomonas aeruginosa; over 64 mg/L in series [3].
Take `N#Cc1ccc(/C=C/c2nc3ccc(OCc4cn(-c5ccc(F)c(Cl)c5)nn4)cc3c(=O)n2Cc2ccccc2)cc1`: the MIC (in the series with Acinetobacter baumannii; against Klebsiella pneumoniae; with Staphylococcus aureus; in the series on Escherichia coli; with Pseudomonas aeruginosa; in series [3]) was over 64 mg/L in each case.
For the molecule `N#Cc1ccc(/C=C/c2nc3ccccc3c(=O)n2-c2ccc(O)cc2C(=O)O)cc1`, the MIC (against Acinetobacter baumannii; in the series on Klebsiella pneumoniae; in the series on Staphylococcus aureus; against Escherichia coli; against Pseudomonas aeruginosa; in series [3]) was over 64 mg/L each time.
In the case of `N#Cc1ccc(/C=C/c2nc3ccccc3c(=O)n2CCc2c[nH]c3ccccc23)cc1`, the MIC (with Acinetobacter baumannii; in the series with Klebsiella pneumoniae; with Staphylococcus aureus; against Escherichia coli; with Pseudomonas aeruginosa; in series [3]) was over 64 mg/L each time.
As to `C#CCOc1ccc2nc(/C=C/c3ccc(C#N)cc3)n(Cc3ccccc3)c(=O)c2c1`, the MIC (in the series on Acinetobacter baumannii; against Klebsiella pneumoniae; against Staphylococcus aureus; against Escherichia coli; against Pseudomonas aeruginosa; in series [3]) was over 64 mg/L throughout.
With `N#Cc1ccc(/C=C/c2nc3ncccc3c(=O)n2-c2cccc(O)c2)cc1`, the MIC (against Acinetobacter baumannii; against Klebsiella pneumoniae; against Staphylococcus aureus; against Escherichia coli; in the series with Pseudomonas aeruginosa; in series [3]) was over 64 mg/L throughout.
Regarding `N#Cc1ccc(/C=C/c2nc3ccc(OCc4cn(-c5cccc(Cl)c5)nn4)cc3c(=O)n2Cc2ccccc2)cc1`, the MIC (against Acinetobacter baumannii; in the series with Klebsiella pneumoniae; in the series on Staphylococcus aureus; with Escherichia coli; against Pseudomonas aeruginosa; in series [3]) was over 64 mg/L in each case.
On to `N#Cc1ccc(/C=C/c2nc3ccccc3c(=O)n2Nc2ccc(C(F)(F)F)cc2)cc1`, for which the MIC (with Acinetobacter baumannii; with Klebsiella pneumoniae; in the series on Staphylococcus aureus; against Escherichia coli; in the series on Pseudomonas aeruginosa; in [3]) was over 64 mg/L each time.
For `COc1cc(-n2c(/C=C/c3ccc(C#N)cc3)nc3ncccc3c2=O)cc(OC)c1OC`, the MIC is over 64 mg/L in the series on Acinetobacter baumannii; over 64 mg/L with Klebsiella pneumoniae; 64 mg/L (≈ 145 µM) against Staphylococcus aureus; over 64 mg/L against Escherichia coli; over 64 mg/L in the series on Pseudomonas aeruginosa; 64 mg/L (≈ 145 µM) in series [3].
`COC(=O)Cn1c(/C=C/c2ccc(C#N)cc2)nc2ccccc2c1=O`: the MIC (in the series on Acinetobacter baumannii; in the series with Klebsiella pneumoniae; against Staphylococcus aureus; against Escherichia coli; with Pseudomonas aeruginosa; in series [3]) was over 64 mg/L in each case.
In the case of `N#Cc1ccc(/C=C/c2nc3ccccc3c(=O)n2Cc2ccc(Cl)c(Cl)c2)cc1`, the MIC (in the series on Acinetobacter baumannii; with Klebsiella pneumoniae; in the series on Staphylococcus aureus; in the series with Escherichia coli; against Pseudomonas aeruginosa; in series [3]) was over 64 mg/L throughout.
Consider `C=CCOc1cccc(-n2c(/C=C/c3ccc(C#N)cc3)nc3cccc(F)c3c2=O)c1`, for which the MIC against Acinetobacter baumannii was over 64 mg/L; in the series with Klebsiella pneumoniae, over 64 mg/L; against Staphylococcus aureus, 64 mg/L (≈ 151 µM); against Escherichia coli, over 64 mg/L; in the series on Pseudomonas aeruginosa, over 64 mg/L; in [3], over 64 mg/L.
Regarding `Cc1nc2cc(NCc3cn(-c4ccc(F)c(Cl)c4)nn3)ccc2c(=O)n1-c1ccccc1`, the MIC (with Acinetobacter baumannii; in the series on Klebsiella pneumoniae; in the series on Staphylococcus aureus; in the series with Escherichia coli; in the series on Pseudomonas aeruginosa; in [3]) was over 64 mg/L throughout.
Consider `COc1ccc(-c2ccc3nc(C)n(-c4ccccc4)c(=O)c3c2)cc1`, for which the MIC was over 64 mg/L against Acinetobacter baumannii; over 64 mg/L in the series with Klebsiella pneumoniae; 32 mg/L (≈ 93.5 µM) in the series with Staphylococcus aureus; over 64 mg/L in the series on Escherichia coli; over 64 mg/L with Pseudomonas aeruginosa; over 64 mg/L in series [3].
For `COc1ccc(-c2cn(-c3ccc4c(=O)n(-c5ccccc5)c(/C=C/c5ccc(C#N)cc5)nc4c3)nn2)cc1`, the MIC (in the series on Acinetobacter baumannii; in the series with Klebsiella pneumoniae; in the series with Staphylococcus aureus; against Escherichia coli; in the series on Pseudomonas aeruginosa; in [3]) was over 64 mg/L throughout.
For `Cc1nc2ccc(-c3ccc(F)cc3)cc2c(=O)n1-c1cccc(Cl)c1`, the MIC (in the series with Acinetobacter baumannii; against Klebsiella pneumoniae; against Staphylococcus aureus; against Escherichia coli; in the series with Pseudomonas aeruginosa; in series [3]) was over 64 mg/L in each case.
As for `Cc1nc2ccc(-c3ccccc3)cc2c(=O)n1-c1ccccc1`, the MIC (against Acinetobacter baumannii; in the series on Klebsiella pneumoniae; in the series on Staphylococcus aureus; against Escherichia coli; in the series on Pseudomonas aeruginosa; in series [3]) was over 64 mg/L in each case.
With `COc1ccc(-c2cn(-c3ccc4c(=O)n(-c5ccccc5)c(C)nc4c3)nn2)cc1`, the MIC is over 64 mg/L against Acinetobacter baumannii; over 64 mg/L with Klebsiella pneumoniae; over 64 mg/L in the series on Staphylococcus aureus; over 64 mg/L in the series on Escherichia coli; over 64 mg/L in the series with Pseudomonas aeruginosa; 64 mg/L (≈ 156 µM) in series [3].

The values are drawn from ChEMBL document CHEMBL4393707, “Synthesis and evaluation of new quinazolin-4(3H)-one derivatives as potent antibacterial agents against multidrug resistant Staphylococcus aureus and Mycobacterium tuberculosis” (Eur J Med Chem, 2019).
